Data on two compounds can be found in publication PMC5713897 (Investigative Ophthalmology & Visual Science, 2017).

Values after ≈ are worked out from the molar mass of the structure shown. Where two headings read alike, the source gives them in different places.

The conditions of series [1]: cited from earlier work.
Series [2] is described as follows: Phase solubility study of ilomastat with 2-hydroxypropyl-β-cyclodextrin (HPLC). The class given is physicochemical. Here is the method: The mixture was left to stir overnight.
A flow rate of 1 mL/min was used with 0.1% trifluoroacetic acid in water and acetonitrile as eluents A and B, respectively, with a linear gradient from 80% A to 70% B in 17 minutes. The detection wavelength was 280 nm.
The mixture was left to stir overnight. Benzalkonium chloride (BAC) (0.8 mg) was then added to the mixture, and the mixture was filtered (0.22 μm PES).

Series [3] has as its system Human Tenon fibroblast cells (HTFs).
Experimental: Human Tenon fibroblast cells (HTFs) were maintained in fibroblast culture medium composed of Dulbecco's modified Eagle's medium (DMEM) supplemented with 10% (vol/vol) fetal bovine serum (FBS), 2 mM L-glutamine, 100 IU/mL penicillin, and 100 g/mL streptomycin (all from Gibco Life Technologies, Paisley, Scotland, UK) at 37°C with 5% (vol/vol) CO2 in air. The medium was changed every 3 to 4 days until cells reached confluence. The cells were passaged at a ratio of 1:4. Cultures were used between passages 3 and 10 for the gel contraction experiments.[33]
HTF cells (7 × 10^4 cells/mL) were seeded in collagen type-1 lattice (150 μL) in a Matteck dish. […] The drug solutions were added to the lattice (2 mL) at each individual concentration and incubated at 37°C. The gels were imaged daily from day 0 to day 7, and the percent contraction was calculated based on the decrease in gel area using ImageJ software (http://imagej.nih.gov/ij/; provided in the public domain by the National Institutes of Health, Bethesda, MD, USA). […] Each formulation was tested in triplicate.
The conditions of series [4]: weak hydroxamic acid; cited from earlier work.

In the case of `CC(O)COC[C@H]1O[C@@H]2O[C@H]3[C@H](O)[C@@H](O)[C@@H](O[C@H]4[C@H](O)[C@@H](O)[C@@H](O[C@H]5[C@H](O)[C@@H](O)[C@@H](O[C@H]6[C@H](O)[C@@H](O)[C@@H](O[C@H]7[C@H](O)[C@@H](O)[C@@H](O[C@H]8[C@H](O)[C@@H](O)[C@@H](O[C@H]1[C@H](O)[C@H]2O)O[C@@H]8COCC(C)O)O[C@@H]7COCC(C)O)O[C@@H]6COCC(C)O)O[C@@H]5COCC(C)O)O[C@@H]4COCC(C)O)O[C@@H]3COCC(C)O` (stereo partly drawn) [2-Hydroxypropyl-β-cyclodextrin], the water solubility in series [1] (water) is 450 mg/mL (≈ 292000 µM).
Consider `CNC(=O)[C@H](Cc1c[nH]c2ccccc12)NC(=O)[C@@H](CC(=O)NO)CC(C)C` [ilomastat], for which the solubility (usually how much of the substance goes into solution per volume) in series [2] (PBS, pH 7.4, read-out: aqueous solubility in PBS (pH 7.4)) was 160 µg/mL (≈ 412 µM); in series [2] (water, read-out: aqueous solubility in water) it was 140 µg/mL (≈ 360 µM). The “inhibition of collagen gel contraction (in words)” value in series [3] (7-day incubation) was “significantly inhibited collagen gel contraction”. Besides, the gel contraction in series [3] (day 7, 0.01 μM ilomastat, HTFs in collagen, n = 3) was 51.79% ± 2.05. Besides, the “solubility in balanced salt solution” value in series [1] (balanced salt solution, 35.5°C) was 161 µg/mL. In series [4], the pKa (in general, the negative logarithm of the acid dissociation constant) is 8.9.
